Test results taken from patent US9266939B2, “Compositions comprising natriuretic peptides and methods of use thereof” (Alexion Pharmaceuticals, Inc., priority 2010, dated 2016).
Where “and” joins values, the source holds several entries; their conditions need not be identical. Equal values may be shown once. Peptide text beside a SMILES is read from it.

What was measured:
[1] = molecular target: neutral endopeptidase (NEP) (Homo sapiens, UniProt P08473)
[2] = molecular target: T1, NPR-B (Homo sapiens, UniProt P20594); experiment: Membrane guanylyl cyclase (cGMP) assay, NPR-B; type: biochemical
T1 sequence (P20594 23-1047): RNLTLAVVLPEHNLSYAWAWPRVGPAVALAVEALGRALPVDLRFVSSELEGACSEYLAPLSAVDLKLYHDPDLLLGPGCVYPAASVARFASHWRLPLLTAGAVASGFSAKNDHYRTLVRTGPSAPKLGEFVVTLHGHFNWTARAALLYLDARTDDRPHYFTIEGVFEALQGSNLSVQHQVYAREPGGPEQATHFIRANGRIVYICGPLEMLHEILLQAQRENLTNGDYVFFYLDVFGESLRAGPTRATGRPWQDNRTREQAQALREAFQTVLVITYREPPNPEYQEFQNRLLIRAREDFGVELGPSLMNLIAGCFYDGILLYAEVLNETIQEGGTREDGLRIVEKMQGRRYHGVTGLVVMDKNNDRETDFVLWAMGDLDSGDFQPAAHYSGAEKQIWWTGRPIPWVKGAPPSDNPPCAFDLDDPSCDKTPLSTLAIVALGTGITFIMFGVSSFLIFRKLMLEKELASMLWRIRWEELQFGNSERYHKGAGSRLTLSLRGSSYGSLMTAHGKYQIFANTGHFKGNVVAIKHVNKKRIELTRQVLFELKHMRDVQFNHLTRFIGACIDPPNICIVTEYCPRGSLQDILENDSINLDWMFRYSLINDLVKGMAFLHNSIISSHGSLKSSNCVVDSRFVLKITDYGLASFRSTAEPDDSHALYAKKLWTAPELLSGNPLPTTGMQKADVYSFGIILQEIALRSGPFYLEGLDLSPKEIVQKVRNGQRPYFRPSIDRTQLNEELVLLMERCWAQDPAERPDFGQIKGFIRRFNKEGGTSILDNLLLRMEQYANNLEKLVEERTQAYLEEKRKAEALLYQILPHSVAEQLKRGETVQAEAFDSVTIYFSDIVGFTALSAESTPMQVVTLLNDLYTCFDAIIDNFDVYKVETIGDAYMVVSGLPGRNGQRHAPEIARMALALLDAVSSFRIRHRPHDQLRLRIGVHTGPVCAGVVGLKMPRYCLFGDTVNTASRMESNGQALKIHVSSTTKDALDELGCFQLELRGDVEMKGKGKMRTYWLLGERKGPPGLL

[3] = molecular target: NPR-A (Homo sapiens, UniProt P16066); type: biochemical
Sequence of NPR-A (P16066 33-1061): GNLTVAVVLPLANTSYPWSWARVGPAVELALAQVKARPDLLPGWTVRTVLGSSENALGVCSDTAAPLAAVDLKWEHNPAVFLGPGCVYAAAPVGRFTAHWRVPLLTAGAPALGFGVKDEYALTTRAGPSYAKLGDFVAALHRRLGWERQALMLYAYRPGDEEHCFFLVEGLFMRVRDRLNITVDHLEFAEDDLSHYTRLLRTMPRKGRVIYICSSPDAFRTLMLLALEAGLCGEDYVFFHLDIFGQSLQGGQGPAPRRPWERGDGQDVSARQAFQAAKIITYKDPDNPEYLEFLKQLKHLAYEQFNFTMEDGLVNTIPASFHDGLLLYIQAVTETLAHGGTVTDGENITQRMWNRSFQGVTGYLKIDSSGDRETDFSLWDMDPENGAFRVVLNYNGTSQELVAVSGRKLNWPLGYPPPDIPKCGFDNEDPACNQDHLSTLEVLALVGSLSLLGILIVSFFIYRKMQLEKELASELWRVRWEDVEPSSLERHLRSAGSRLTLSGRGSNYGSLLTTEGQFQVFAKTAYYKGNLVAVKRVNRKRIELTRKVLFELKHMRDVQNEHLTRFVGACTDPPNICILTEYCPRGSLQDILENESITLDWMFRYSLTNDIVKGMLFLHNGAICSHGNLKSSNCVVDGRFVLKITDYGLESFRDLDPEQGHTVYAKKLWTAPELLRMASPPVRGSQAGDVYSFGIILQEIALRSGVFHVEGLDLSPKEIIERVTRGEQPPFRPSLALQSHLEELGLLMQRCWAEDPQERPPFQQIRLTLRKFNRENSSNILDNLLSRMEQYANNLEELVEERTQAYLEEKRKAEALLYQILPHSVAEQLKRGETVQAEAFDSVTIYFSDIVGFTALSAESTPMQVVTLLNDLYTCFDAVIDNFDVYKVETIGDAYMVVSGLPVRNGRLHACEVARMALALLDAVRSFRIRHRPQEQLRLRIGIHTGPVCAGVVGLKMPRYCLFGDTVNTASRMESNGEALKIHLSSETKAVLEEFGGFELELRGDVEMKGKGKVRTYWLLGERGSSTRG

Sequence of neutral endopeptidase (NEP) (P08473 whole entry): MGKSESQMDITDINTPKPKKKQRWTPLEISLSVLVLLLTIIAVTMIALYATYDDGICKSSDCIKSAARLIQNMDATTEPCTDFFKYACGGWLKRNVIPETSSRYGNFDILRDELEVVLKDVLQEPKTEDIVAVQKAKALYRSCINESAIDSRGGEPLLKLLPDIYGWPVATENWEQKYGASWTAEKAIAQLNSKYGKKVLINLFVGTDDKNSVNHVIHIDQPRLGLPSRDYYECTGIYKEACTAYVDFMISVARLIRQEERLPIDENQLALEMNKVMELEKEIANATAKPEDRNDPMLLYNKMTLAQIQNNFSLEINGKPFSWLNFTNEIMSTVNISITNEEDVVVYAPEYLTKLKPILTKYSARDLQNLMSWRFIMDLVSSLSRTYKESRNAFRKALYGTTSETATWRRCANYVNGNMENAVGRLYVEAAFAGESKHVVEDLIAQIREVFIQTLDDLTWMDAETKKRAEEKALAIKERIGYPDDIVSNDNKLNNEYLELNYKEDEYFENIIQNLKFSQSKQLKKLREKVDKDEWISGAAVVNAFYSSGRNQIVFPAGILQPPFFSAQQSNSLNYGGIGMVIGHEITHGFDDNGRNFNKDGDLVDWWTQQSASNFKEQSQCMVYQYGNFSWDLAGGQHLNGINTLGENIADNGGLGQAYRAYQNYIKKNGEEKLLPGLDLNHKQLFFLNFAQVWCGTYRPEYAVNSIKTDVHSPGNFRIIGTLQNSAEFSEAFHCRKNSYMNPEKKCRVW

CC[C@H](C)[C@@H]1NC(=O)[C@H](CCCNC(=N)N)NC(=O)[C@H](CC(=O)O)NC(=O)[C@H](CC(C)C)NC(=O)[C@H](CCCCN)NC(=O)[C@H](CC(C)C)NC(=O)CNC(=O)[C@H](Cc2ccccc2)NC(=O)[C@@H](NC(=O)CNC(=O)[C@H](CCCCN)NC(=O)[C@H](CO)NC(=O)[C@H](CC(C)C)NC(=O)CN)CSSC[C@@H](C(=O)N2CCC[C@H]2C(=O)N[C@@H](CO)C(=O)N[C@@H](CO)C(=O)N[C@@H](CCCNC(=N)N)C(=O)N[C@@H](C)C(=O)N2CCC[C@H]2C(=O)N[C@@H](CCCNC(=N)N)C(=O)N2CCC[C@H]2C(=O)N[C@@H](CC(N)=O)C(=O)N[C@@H](C)C(=O)N2CCC[C@H]2C(=O)N[C@@H](CO)C(=O)N[C@H](C(=O)N[C@@H](CO)C(=O)N[C@@H](C)C(=O)O)[C@@H](C)O)NC(=O)CNC(=O)[C@H](CC(C)C)NC(=O)CNC(=O)[C@H](CO)NC(=O)[C@H](CCSC)NC(=O)[C@H](CO)NC(=O)CNC1=O [CDNP-SRA] (HELM PEPTIDE1{G.L.S.K.G.C.F.G.L.K.L.D.R.I.G.S.M.S.G.L.G.C.P.S.S.R.A.P.R.P.N.A.P.S.T.S.A}$PEPTIDE1,PEPTIDE1,6:R3-22:R3$$$V2.0)
sensitivity to NEP degradation [1]: comparable NEP sensitivity
% efficacy versus CDNP on NPR-B [2]: 118%
Approximate fold gain in selectivity versus CDNP [2]: 1.2 fold and 1.23 fold
Approximate fold selectivity NPR-B versus NPR-A [2]: 3.59 fold
NPR-B selective efficacy gain [2]: 82%
% efficacy versus CDNP on NPR-A [3]: 36%
% loss in efficacy versus CDNP [3]: 82%

CC[C@H](C)[C@@H]1NC(=O)[C@H](CCCNC(=N)N)NC(=O)[C@H](CC(=O)O)NC(=O)[C@H](CC(C)C)NC(=O)[C@H](CCCCN)NC(=O)[C@H](CC(C)C)NC(=O)CNC(=O)[C@H](Cc2ccccc2)NC(=O)[C@@H](NC(=O)CNC(=O)[C@H](CCCCN)NC(=O)[C@H](CO)NC(=O)[C@H](CC(C)C)NC(=O)CN)CSSC[C@@H](C(=O)N2CCC[C@H]2C(=O)N[C@@H](CO)C(=O)N[C@@H](CO)C(=O)N[C@@H](C)C(=O)N[C@@H](C)C(=O)N2CCC[C@H]2C(=O)N[C@@H](CCCNC(=N)N)C(=O)N2CCC[C@H]2C(=O)N[C@@H](CC(N)=O)C(=O)N[C@@H](C)C(=O)N2CCC[C@H]2C(=O)N[C@@H](CO)C(=O)N[C@H](C(=O)N[C@@H](CO)C(=O)N[C@@H](C)C(=O)O)[C@@H](C)O)NC(=O)CNC(=O)[C@H](CC(C)C)NC(=O)CNC(=O)[C@H](CO)NC(=O)[C@H](CCSC)NC(=O)[C@H](CO)NC(=O)CNC1=O [CDNP-SAA] (HELM PEPTIDE1{G.L.S.K.G.C.F.G.L.K.L.D.R.I.G.S.M.S.G.L.G.C.P.S.S.A.A.P.R.P.N.A.P.S.T.S.A}$PEPTIDE1,PEPTIDE1,6:R3-22:R3$$$V2.0)
sensitivity to NEP degradation [1]: slightly more sensitive to NEP than CDNP
Approximate fold gain in selectivity versus CDNP [2]: 15 fold and 14.9 fold
Approximate fold selectivity NPR-B versus NPR-A [2]: 43.5 fold
NPR-B selective efficacy gain [2]: 69%
% efficacy versus CDNP on NPR-A [3]: 34-69%
% loss in efficacy versus CDNP [3]: 69%

CC[C@H](C)[C@@H]1NC(=O)[C@H](CCCNC(=N)N)NC(=O)[C@H](CC(=O)O)NC(=O)[C@H](CC(C)C)NC(=O)[C@H](CCCCN)NC(=O)[C@H](CC(C)C)NC(=O)CNC(=O)[C@H](Cc2ccccc2)NC(=O)[C@@H](NC(=O)CNC(=O)[C@H](CCCCN)NC(=O)[C@H](CO)NC(=O)[C@H](CC(C)C)NC(=O)CN)CSSC[C@@H](C(=O)N2CCC[C@H]2C(=O)N[C@@H](CO)C(=O)N[C@@H](CO)C(=O)N[C@@H](C)C(=O)N[C@@H](CC(=O)O)C(=O)N2CCC[C@H]2C(=O)N[C@@H](CCCNC(=N)N)C(=O)N2CCC[C@H]2C(=O)N[C@@H](CC(N)=O)C(=O)N[C@@H](C)C(=O)N2CCC[C@H]2C(=O)N[C@@H](CO)C(=O)N[C@H](C(=O)N[C@@H](CO)C(=O)N[C@@H](C)C(=O)O)[C@@H](C)O)NC(=O)CNC(=O)[C@H](CC(C)C)NC(=O)CNC(=O)[C@H](CO)NC(=O)[C@H](CCSC)NC(=O)[C@H](CO)NC(=O)CNC1=O [CDNP-SAD] (HELM PEPTIDE1{G.L.S.K.G.C.F.G.L.K.L.D.R.I.G.S.M.S.G.L.G.C.P.S.S.A.D.P.R.P.N.A.P.S.T.S.A}$PEPTIDE1,PEPTIDE1,6:R3-22:R3$$$V2.0)
sensitivity to NEP degradation [1]: comparable NEP sensitivity
Approximate fold gain in selectivity versus CDNP [2]: 28 fold and 28.5 fold
Approximate fold selectivity NPR-B versus NPR-A [2]: 83.2 fold
NPR-B selective efficacy gain [2]: 27%
% loss in efficacy versus CDNP [3]: 27%
